pIC50: −log10 of the molar value. Read-outs that look alike come from different tables or passages of the source.

For 13 molecules, IC50 results are on record in patent US10028961B2, “Therapeutically active compounds and their methods of use” (AGIOS PHARMACEUTICALS, INC., priority 2013, dated 2018).

Assay [1] deals with IDH1 wt/IDH1 R132H heterodimer (Homo sapiens (Human), UniProt O75874, R132H). The assay is described as follows: In vitro assay for IDH1m R132H inhibitors, IDH1 wt/IDH1 R132H heterodimer, NADPH depletion (diaphorase/resazurin). Type of assay: biochemical. In a few lines:
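Purified IDH1wt-his/IDH1R132H-flag heterodimer (sf9 co-expression) pre-incubated 1 hr at room temperature with compound and NADPH before α-KG addition. Remaining NADPH read by diaphorase/resazurin conversion to fluorescent resorufin, 5 min at 25° C. Compounds diluted 1:50 from DMSO; IC50 determined.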

The target of assay [2] is T1, IDH2 R140Q (Homo sapiens (Human), UniProt P48735, R140Q). The assay is described as follows: In vitro assay for IDH2m R140Q inhibitors, cofactor depletion assay. The format is biochemical. The settings on record: IDH2 R140Q enzyme. The essentials: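 Remaining cofactor measured fluorimetrically: diaphorase/resazurin Stop Mix […], halting the reaction. Before that, mutant enzyme and compound sat 1 h at RT, then substrate mix (4 μM NADPH, 1.6 mM α-KG) was added for 16 h at RT.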

Assay [3] deals with IDH1 wt/IDH1 R132C heterodimer (Homo sapiens (Human), UniProt O75874, R132C). The experiment in a line: In vitro assay for IDH1m R132C inhibitors, IDH1 wt/IDH1 R132C heterodimer, NADPH depletion (diaphorase/resazurin). The format is biochemical. Conditions: NADPH/NADP. The essentials:
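Remaining NADPH was measured by diaphorase/resazurin conversion (5 min, 25 °C) as resorufin fluorescence, Ex 544/Em 590. DMSO was diluted 1:50 into the reaction, and IC50s were derived.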
For orientation: The colour change of resazurin is a common sign of viable cells or microbes.

In assay [4] the test system is U87MG pLVX-IDH2 R140Q-neo cells. The experiment in a line: U87MG pLVX-IDH2 R140Q-neo cell based assay, 2-HG by LC-MS. Conditions: Homo sapiens, U-87 MG.
The target in assay [5] is IDH1-R132H homodimer enzyme (Homo sapiens (Human), UniProt O75874, R132H). The assay is described as follows: In vitro assay IDH1-R132H homodimer, NADPH depletion assay with NADPH/NADP preincubation. The format is biochemical. Conditions: 5 μM NADPH and 37.5 μM NADP. The essentials: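 Conversion of alpha-ketoglutarate to 2-hydroxyglutarate tracked by NADPH depletion. Reaction started with 5 mM alpha-ketoglutarate plus NADPH substrate mix (50 μl total), 60 min at room temperature. Leftover NADPH quantified via diaphorase/resazurin fluorescence.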

Assay [6] has as its target T1, IDH2 R140Q. The assay is described as follows: In vitro assay for IDH2m R140Q inhibitors, cofactor depletion assay, 16 hr preincubation with NADPH/NADP. Type of assay: biochemical. Conditions: read-out: IDH2 R140Q 16 hr NADPH/NADP IC50; 16 hrs preincubation with enzyme, 5 uM NADPH and 750 uM NADP. From the text: The following describes the experimental procedures used to obtain data on column 6 of Table 5.
The reaction is terminated by the addition of a second enzyme, diaphorase, and a corresponding substrate, resazurin. Diaphorase reduces resazurin to the highly fluorescent resorufin with the concomitant oxidation of NADPH to NADP, both halting the IDH2 reaction by depleting the available cofactor pool and facilitating quantitation of the amount of cofactor remaining after a specific time period through quantitative production of an easily detected fluorophore.
The test compound is then incubated for 16 hrs at room temperature with the enzyme and cofactors before starting the IDH2 reaction with the addition of 10 μl of substrate mix containing 8 mM α-KG (final concentration 1.6 mM) in the buffer described above. After a further 1 hour of incubation at room temperature, the reaction is halted and the remaining NADPH measured through conversion of resazurin to resorufin by the addition of 25 μl Stop Mix (36 μg/ml diaphorase enzyme and 60 μM resazurin; in buffer).

The target in assay [7] is IDH1-R132C homodimer enzyme (Homo sapiens (Human), UniProt O75874, R132C). The experiment in a line: In vitro assay IDH1-R132C homodimer, NADPH depletion assay with NADPH/NADP preincubation. The format is biochemical. The settings on record: 5 uM NADPH and 28.75 uM NADP, read-out: IDH R132C NADPH/NADP IC50. How it is done: The following describes the experimental procedures that can be used to obtain data on columns 3 and 5 of Table 5.
A test compound is prepared as 10 mM stock in DMSO and diluted to 50× final concentration in DMSO, for a 50 μl reaction mixture. IDH enzyme activity converting alpha-ketoglutarate to 2-hydroxyglutaric acid is measured using a NADPH depletion assay. In the assay the remaining cofactor is measured at the end of the reaction with the addition of a catalytic excess of diaphorase and resazurin, to generate a fluorescent signal in proportion to the amount of NADPH remaining. […] The reaction is started with the addition of 10 μl of Substrate Mix ([…], 5 mM alpha-ketoglutarate, in Assay Buffer) and the mixture is incubated for 60 minutes at room temperature.
The concentration of alpha-ketoglutarate in the Substrate Buffer is 1 mM.

For assay [8], the system named is Neurosphere cells (TS603). The experiment in a line: Cellular assay for IDH1m R132H inhibitors, 2-HG by LC-MS in neurosphere cells (TS603). The settings on record: 2-HG in media at 48 hours. The format is cell-based. The essentials: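 TS603 neurosphere cells in NeuroCult medium were dosed with compound (0.25% DMSO final) at 37 C, 5% CO2. After 48 hours, medium 2-HG was measured by LC-MS. At 72 hours, viability was read by CellTiter-Glo luminescence.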

Setting [9] is: IDH1 wt/R132H heterodimer, NADPH/NADP, not saturated, read-out: IDH1 wt/R132H NADPH/NADP IC50 not saturated.
The mark [10] stands for this setting: IDH1 wt/IDH1 R132H heterodimer, 300 μM NADP (saturated), read-out: IDH1 wt/R132H NADPH/NADP IC50 saturated.

T1 sequence (P48735 40-452 R140Q): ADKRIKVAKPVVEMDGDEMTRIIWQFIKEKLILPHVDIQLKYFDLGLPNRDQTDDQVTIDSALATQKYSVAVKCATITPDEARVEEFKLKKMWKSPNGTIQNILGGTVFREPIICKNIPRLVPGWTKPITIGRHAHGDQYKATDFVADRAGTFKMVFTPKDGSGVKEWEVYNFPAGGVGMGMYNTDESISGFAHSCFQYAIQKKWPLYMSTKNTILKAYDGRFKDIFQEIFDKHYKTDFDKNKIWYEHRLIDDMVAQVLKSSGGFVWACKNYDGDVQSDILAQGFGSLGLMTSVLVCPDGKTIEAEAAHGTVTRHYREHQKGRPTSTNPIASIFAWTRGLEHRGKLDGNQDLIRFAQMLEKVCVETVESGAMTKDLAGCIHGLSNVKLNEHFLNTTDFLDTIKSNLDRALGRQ
Sequence of IDH1 wt/IDH1 R132C heterodimer (O75874 whole entry R132C): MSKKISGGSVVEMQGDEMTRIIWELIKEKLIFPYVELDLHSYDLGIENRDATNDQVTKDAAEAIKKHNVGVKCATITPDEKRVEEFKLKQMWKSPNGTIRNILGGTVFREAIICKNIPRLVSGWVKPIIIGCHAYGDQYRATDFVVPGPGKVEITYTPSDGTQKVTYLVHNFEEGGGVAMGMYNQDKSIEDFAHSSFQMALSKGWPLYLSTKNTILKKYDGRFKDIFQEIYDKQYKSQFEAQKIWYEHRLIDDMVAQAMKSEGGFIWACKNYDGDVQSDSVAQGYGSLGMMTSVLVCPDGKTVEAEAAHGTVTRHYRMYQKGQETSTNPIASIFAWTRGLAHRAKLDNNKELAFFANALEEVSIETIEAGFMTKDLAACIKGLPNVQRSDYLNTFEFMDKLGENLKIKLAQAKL
Sequence of IDH1 wt/IDH1 R132C heterodimer (O75874 whole entry, stated change not applied): as the sequence (O75874 whole entry R132C) above, with C132R counted along it
Sequence of IDH1-R132C homodimer enzyme (O75874 whole entry R132C): as the sequence (O75874 whole entry R132C) above
Sequence of IDH1 wt/IDH1 R132H heterodimer (O75874 whole entry R132H): as the sequence (O75874 whole entry R132C) above, with C132H counted along it
Sequence of IDH1 wt/IDH1 R132H heterodimer (O75874 whole entry, stated change not applied): as the sequence (O75874 whole entry R132C) above, with C132R counted along it
Sequence of IDH1-R132H homodimer enzyme (O75874 whole entry R132H): as the sequence (O75874 whole entry R132C) above, with C132H counted along it

As to `CC(C)(C)Nc1nc(Nc2ccnc(C(C)(F)F)c2)nc(-c2nccc(C(F)(F)F)n2)n1` [Compound 289], the pIC50 in assay [1] (setting [9]) is 6.00 to 7.00; on IDH2 R140Q [2], > 7.30; in assay [3], ≤ 6.00; in assay [4] it was > 7.30; in assay [5], < 6.00; on IDH2 R140Q [6], 7.00 to 7.30.

On to `CC(C)(C#N)CNc1nc(Nc2ccnc(C(C)(F)F)c2)nc(-c2cccc(C(F)(F)F)n2)n1` [Compound 267], for which the pIC50 in assay [1] (setting [9]) was 6.00 to 7.00; at IDH2 R140Q [2] it was > 7.30; in assay [3], 6.00 to 7.00; in assay [4], > 7.30; in assay [5] it was < 6.00; on IDH2 R140Q [6], 7.00 to 7.30.

As to `N#CC1(c2cc(Nc3nc(N[C@H]4CCC(F)(F)C4)nc(-c4cccc(C(F)(F)F)n4)n3)ccn2)CC1` [Compound 133], the pIC50 in assay [1] (setting [9]) was > 7.30; against IDH2 R140Q [2] it was > 7.30; in assay [7], 6.00 to 7.00; in assay [4], > 7.30; in assay [5], 7.00 to 7.30; in assay [8], > 7.30.

With `FC1(F)CC(Nc2nc(Nc3ccnc(C(F)(F)F)c3)nc(-c3cccc(C(F)(F)F)n3)n2)C1` [Compound 190], the pIC50 in assay [1] (setting [9]) was > 7.30; on IDH2 R140Q [2] it was > 7.30; in assay [7], < 6.00; in assay [4] it was > 7.30; in assay [5] it was 6.00 to 7.00; in assay [8], > 7.30.

`FC1(F)CC[C@H](Nc2nc(Nc3ccnc(C(F)(F)F)c3)nc(-n3ccc(C(F)(F)F)n3)n2)C1` [Compound 393]: the pIC50 in assay [1] (setting [10]) is > 7.30; on IDH2 R140Q [2], > 7.30; in assay [7], 6.00 to 7.00; in assay [4] it was > 7.30; in assay [5], 7.00 to 7.30; in assay [8], > 7.30.

For `C[C@@H](Nc1nc(NCCOc2ccccc2)nc(-c2cccc(C(F)(F)F)n2)n1)C1CC1` [Compound 246], the pIC50 in assay [1] (setting [9]) is 7.00 to 7.30; against IDH2 R140Q [2] it was 7.00 to 7.30; in assay [3], 7.00 to 7.30; in assay [4], 7.00 to 7.30; in assay [5], 6.00 to 7.00; on IDH2 R140Q [6] it was > 7.30.

As to `CC(C)Nc1nc(Nc2ccnc(C(C)(F)F)c2)nc(-c2nccc(C(F)(F)F)n2)n1` [Compound 298], the pIC50 in assay [1] (setting [9]) was 6.00 to 7.00; on IDH2 R140Q [2], > 7.30; in assay [3], ≤ 6.00; in assay [4] it was > 7.30; in assay [5], < 6.00; at IDH2 R140Q [6], 7.00 to 7.30.

As to `FC1(F)CC[C@H](Nc2nc(Nc3ccnc(C(F)(F)F)c3)nc(-c3cccc(C(F)(F)F)n3)n2)C1` [Compound 158], the pIC50 in assay [1] (setting [9]) was > 7.30; against IDH2 R140Q [2] it was > 7.30; in assay [7], 6.00 to 7.00; in assay [4], > 7.30; in assay [5] it was 7.00 to 7.30; in assay [8], > 7.30.

Turning to `N#CC1(c2cc(Nc3nc(N[C@@H]4CCC(F)(F)C4)nc(-c4cccc(C(F)(F)F)n4)n3)ccn2)CC1` [Compound 137], the pIC50 is > 7.30 in assay [1] (setting [9]); > 7.30 at IDH2 R140Q [2]; 6.00 to 7.00 in assay [7]; > 7.30 in assay [4]; > 7.30 in assay [5]; > 7.30 in assay [8].

Turning to `C[C@@H](Nc1nc(Nc2ccnc(C(F)(F)F)c2)nc(-n2ccc(C(F)(F)F)n2)n1)C(F)(F)F` [Compound 400], the pIC50 in assay [1] (setting [10]) was > 7.30; against IDH2 R140Q [2], > 7.30; in assay [7], 6.00 to 7.00; in assay [4], > 7.30; in assay [5] it was 6.00 to 7.00; in assay [8], > 7.30.

Regarding `N#CC1(c2cc(Nc3nc(N[C@@H]4CCC(F)(F)C4)nc(-n4ccc(C(F)(F)F)n4)n3)ccn2)CC1` [Compound 350], the pIC50 in assay [1] (setting [10]) is > 7.30; at IDH2 R140Q [2], > 7.30; in assay [7], 7.00 to 7.30; in assay [4], > 7.30; in assay [5] it was > 7.30; in assay [8], > 7.30.

Regarding `N#CC1(c2cc(Nc3nc(N[C@H]4CCC(F)(F)C4)nc(-n4ccc(C(F)(F)F)n4)n3)ccn2)CC1` [Compound 174], the pIC50 in assay [1] (setting [9]) was > 7.30; against IDH2 R140Q [2], > 7.30; in assay [7], 7.00 to 7.30; in assay [4] it was > 7.30; in assay [5], > 7.30; in assay [8] it was > 7.30.

Regarding `FC1(F)CC[C@@H](Nc2nc(N[C@@H]3CCC(F)(F)C3)nc(-c3cncc(C(F)(F)F)n3)n2)C1` [Compound 410], the pIC50 (in assay [1] (setting [10]); against IDH2 R140Q [2]; in assay [7]; in assay [4]; in assay [5]; in assay [8]) was > 7.30 throughout.
